Results as given in patent US10689343B2, “Inhibitors of tryptophan 2,3-dioxygenase” (NETHERLANDS TRANSLATIONAL RESEARCH CENTER B.V., priority 2016, dated 2020).
“And” between values parts separate entries of the source, which are not always exact repeats. Equal values may be shown once. Read-outs that look alike come from different tables or passages of the source.

What was measured:
Recombinant TDO = target: T1, Recombinant TDO (Homo sapiens, UniProt P48775); assay: Biochemical assay for TDO (NFK GreenScreen); settings: 50 nM TDO, 200 μM L-tryptophan
T1 construct: Recombinant TDO (Seegers, N., et al.) and all other assay components were diluted in TDO reaction buffer
Experimental: Biochemical Assay for TDO
The NFK GreenScreen™ assay technology was also used to determine the inhibitory activity of compounds on TDO (Seegers, N., et al., J. Biol. Screen. 19: 1266; 2014). Compounds were serially diluted in DMSO and finally in TDO reaction buffer, consisting of 100 mM NaH2PO4, pH 7.0, supplemented with 0.02% Tween-20 (cat. No. P7949; Sigma Aldrich). Recombinant TDO (Seegers, N., et al.) and all other assay components were diluted in TDO reaction buffer. 10 μl of compound solution and 20 μl of enzyme solution supplemented with 200 μM ascorbic acid were combined in the well of a black 384-well plate (cat. no. 3573; Corning, Corning, N.Y., USA), and incubated for 60 min at room temperature. Subsequently, 10 μl of 0.8 mM of the substrate L-tryptophan was added, i.e., the final concentration of L-tryptophan was 200 μM. The DMSO concentration in the assay was 0.3%. The concentration of TDO was 50 nM. Incubation was continued for 15 min at room temperature. Then, 10 μl of NFK Green™ (NTRC, Oss, The Netherlands) was added, the plate was sealed, and the reaction was developed for 3 hours at 37° C. To determine the production of N-formyl kynurenine (NFK), the seal was removed and fluorescence was read on an EnVision multimode reader (Perkin Elmer, Waltham, Mass., USA). IC50 were calculated using XLfit™ software (ID Business Solutions, Ltd., Surrey, U.K.).

CYP2D6 = CYP2D6 (Homo sapiens, UniProt P10635); assay: P450-Glo CYP2D6 Luc-IP assay
[1] = target: T2, TDO in SW48 colorectal carcinoma cells (Homo sapiens, UniProt P48775); assay: Cell-based assay for TDO in SW48 colorectal carcinoma cells (NFK GreenScreen); settings: 18 hours with L-tryptophan
T2 construct: Endogenous expression of TDO has been determined in a variety of cancer cell lines; host or cells: SW48 colorectal carcinoma cells
Experimental: The biological activity of TDO inhibitors can be measured by applying above detection methods to cells that are treated with test compound. Endogenous expression of TDO has been determined in a variety of cancer cell lines (Pilotte et al.; Seegers, et al.), or TDO can be expressed in cells that lack endogenous TDO by transfection of an expression vector containing TDO cDNA. […] A preferred assay is the cell-based NFK GreenScreen™ assay (Seegers et al, supra), which measures the cellular inhibitory activity of compounds on TDO. […] No. V9920). Cell-Based Assay for TDO The NFK GreenScreen™ assay technology was also used to determine the inhibitory activity of compounds on TDO in SW48 colorectal carcinoma cells (Seegers, N., et al., J. Biol. Screen. 19: 1266; 2014). […] Compounds were dissolved in DMSO and diluted in RPMI 1640. Final DMSO concentration in the assay was 0.4% (v/v). Eight thousand cells per well in 40 μl were seeded in a black 384-well tissue plate (cat. No. 781086; […] To determine NFK levels, 12 μl NFK Green™ (NTRC, Oss, The Netherlands) was added to each well, and the plate was sealed and incubated for 4 hours at 37° C. Fluorescence was measured on an EnVision multimode reader (Perkin Elmer, Waltham, Mass., USA).

CYP3A4 = CYP3A4 (Homo sapiens, UniProt P08684); assay: P450-Glo CYP3A4 luciferin isopropylacetal (Luc-IP) assay
CYP3A4, sequence (P08684 whole entry): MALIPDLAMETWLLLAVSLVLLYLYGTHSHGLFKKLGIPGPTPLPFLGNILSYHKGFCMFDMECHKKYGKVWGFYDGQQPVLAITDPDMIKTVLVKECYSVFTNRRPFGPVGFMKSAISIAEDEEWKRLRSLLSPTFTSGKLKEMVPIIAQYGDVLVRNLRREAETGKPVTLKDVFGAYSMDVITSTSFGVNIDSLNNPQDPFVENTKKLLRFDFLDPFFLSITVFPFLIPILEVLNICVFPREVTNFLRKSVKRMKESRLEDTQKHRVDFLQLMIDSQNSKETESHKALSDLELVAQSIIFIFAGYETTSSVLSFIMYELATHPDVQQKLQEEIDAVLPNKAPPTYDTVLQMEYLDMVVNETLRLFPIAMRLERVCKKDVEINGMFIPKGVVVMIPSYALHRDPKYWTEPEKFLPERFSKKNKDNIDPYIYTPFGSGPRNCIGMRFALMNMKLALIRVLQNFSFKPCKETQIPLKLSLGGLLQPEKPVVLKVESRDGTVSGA
Description: To determine the inhibitory potency of compounds on CYP3A4 enzyme, the P450-Glo CYP3A4 luciferin isopropylacetal (Luc-IP) assay was used (Promega, Madison, Wis., USA, Cat. No. V9920). The assay makes use of a luminogenic isopropylacetal (IPA) substrate that is a derivative from beetle luciferin, a substrate of luciferase enzymes. The IPA substrate is converted by CYP3A4 to luciferin, which in turn reacts with luciferase to produce an amount of light that is directly proportional to the activity of CYP3A4. Compounds were serially diluted in DMSO and finally in 400 mM K2HPO4, pH 7.4. 5 μl of compound solution and 5 μl of CYP3A4/substrate solution were combined in the well of a white 384-well Optiplate (Perkin Elmer). The DMSO concentration in the assay was 0.1%. After incubation for 10 minutes at room temperature in the dark, 10 μl of NADPH regeneration system was added and incubation was continued for 10 min. Then, 20 μl of Luciferin Detection Reagent was added to stop the reaction, and incubation was continued for another 20 min. Luminescence was measured on an Envision multimode reader and IC50 values were calculated using XLfit™. […] Instead of in a 96-well plate, the assay was performed in 384-well white Perkin Elmer Optiplate (cat. no. 6007290).

CYP2D6, sequence (P10635 whole entry): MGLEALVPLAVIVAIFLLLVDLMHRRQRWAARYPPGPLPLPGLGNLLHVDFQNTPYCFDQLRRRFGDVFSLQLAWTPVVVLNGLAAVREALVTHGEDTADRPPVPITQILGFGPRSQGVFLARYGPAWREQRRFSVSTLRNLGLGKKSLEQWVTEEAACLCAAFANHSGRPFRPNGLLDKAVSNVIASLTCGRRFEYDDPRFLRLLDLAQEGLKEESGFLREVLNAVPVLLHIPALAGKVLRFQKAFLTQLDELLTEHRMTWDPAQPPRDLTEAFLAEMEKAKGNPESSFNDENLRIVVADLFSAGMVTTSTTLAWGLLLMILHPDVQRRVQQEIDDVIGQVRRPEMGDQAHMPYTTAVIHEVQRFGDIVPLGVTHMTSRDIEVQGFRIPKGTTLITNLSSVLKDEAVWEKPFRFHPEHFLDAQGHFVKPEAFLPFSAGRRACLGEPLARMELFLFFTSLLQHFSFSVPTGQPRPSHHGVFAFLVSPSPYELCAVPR
T2 sequence (P48775 whole entry): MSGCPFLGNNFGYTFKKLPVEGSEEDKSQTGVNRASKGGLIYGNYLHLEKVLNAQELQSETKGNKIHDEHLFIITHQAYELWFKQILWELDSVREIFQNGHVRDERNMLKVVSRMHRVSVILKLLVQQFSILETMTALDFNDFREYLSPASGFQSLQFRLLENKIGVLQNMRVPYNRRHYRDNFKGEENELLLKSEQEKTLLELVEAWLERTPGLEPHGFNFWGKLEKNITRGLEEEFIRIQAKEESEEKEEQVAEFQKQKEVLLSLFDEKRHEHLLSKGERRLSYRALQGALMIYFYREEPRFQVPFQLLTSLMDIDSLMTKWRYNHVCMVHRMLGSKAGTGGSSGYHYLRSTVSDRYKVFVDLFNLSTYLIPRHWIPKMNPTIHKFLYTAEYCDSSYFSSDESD
T1 sequence (P48775 whole entry): as above

IC50 (Recombinant TDO) [µM] | IC50 (CYP2D6) [µM] | IC50 ([1]; read-out: IC50 on TDO in cells) | IC50 (CYP3A4) [µM] | SMILES | IC50 ([1]; IC50 on TDO in cells) [µM]
1 to 5 | > 10 | ≤ 0.2 µM | > 10 | O=C(NCCC(F)(F)F)c1ccc(-c2c[nH]c3cc(F)ccc23)cc1 [Example 134, 4-(6-Fluoro-1H-indol-3-yl)-N-(3,3,3-trifluoropropyl)benzamide] | –
< 1 | > 10 | ≤ 0.5 µM and 0.2 to 0.5 µM | > 10 | O=C(NC1CCOCC1)c1ccc(-c2c[nH]c3cc(F)ccc23)cc1 [Example 44, 4-(6-Fluoro-1H-indol-3-yl)-N-tetrahydropyran-4-yl-benzamide] | –
1 to 5 | > 10 | ≤ 0.5 µM and 0.2 to 0.5 µM | 5 to 10 | C[C@H](NC(=O)c1ccc(-c2c[nH]c3cc(F)ccc23)cc1)c1nnc2ccccn12 [Example 45, 4-(6-Fluoro-1H-indol-3-yl)-N-[(1S)-1-([1,2,4]triazolo[4,3-a]pyridin-3-yl)ethyl]benzamide] | –
< 1 | > 10 | ≤ 0.2 µM | > 10 | CN(C)CCCNC(=O)c1ccc(-c2c[nH]c3cc(F)ccc23)cc1Cl [Example 52, 2-Chloro-N-[3-(dimethylamino)propyl]-4-(6-fluoro-1H-indol-3-yl)benzamide] | –
< 1 | > 10 | ≤ 0.2 µM | 5 to 10 | CN1CCCC(NC(=O)c2ccc(-c3c[nH]c4cc(F)ccc34)cc2Cl)C1 (centres unmarked) [Example 68, 2-Chloro-4-(6-fluoro-1H-indol-3-yl)-N-(1-methyl-3-piperidyl)benzamide] | –
< 1 | > 10 | ≤ 0.2 µM | 5 to 10 | CN1CCN(CCCNC(=O)c2ccc(-c3c[nH]c4cc(F)ccc34)cc2)CC1 [Example 135, 4-(6-Fluoro-1H-indol-3-yl)-N-[3-(4-methylpiperazin-1-yl)propyl]benzamide] | –
< 1 | > 10 | ≤ 0.5 µM and 0.2 to 0.5 µM | > 10 | CSCC(=O)Nc1ccc(-c2c[nH]c3cc(F)ccc23)cc1 [Example 31, N-[4-(6-fluoro-1H-indol-3-yl)phenyl]-2-methylsulfanyl-acetamide] | –
< 1 | > 10 | ≤ 0.2 µM | > 10 | O=C(NC1CCCNC1)c1ccc(-c2c[nH]c3cc(F)ccc23)cc1 (centres unmarked) [Example 118, 4-(6-Fluoro-1H-indol-3-yl)-N-(3-piperidyl)benzamide] | –
< 1 | > 10 | ≤ 0.5 µM and 0.2 to 0.5 µM | > 10 | COC[C@@H](C)NC(=O)c1ccc(-c2c[nH]c3cc(F)ccc23)cc1 [Example 17, 4-(6-Fluoro-1H-indol-3-yl)-N-[(1R)-2-methoxy-1-methyl-ethyl]benzamide] | –
< 1 | > 10 | ≤ 0.5 µM and 0.2 to 0.5 µM | 5 to 10 | O=C(NC[C@H]1CCCNC1)c1ccc(-c2c[nH]c3cc(F)ccc23)cc1 [Example 94, 4-(6-Fluoro-1H-indol-3-yl)-N-[[(3S)-3-piperidyl]methyl]benzamide] | –
< 1 | > 10 | ≤ 0.2 µM | > 10 | CN1CCC(NC(=O)c2ccc(-c3c[nH]c4cc(F)ccc34)cc2Cl)CC1 [Example 69, 2-Chloro-4-(6-fluoro-1H-indol-3-yl)-N-(1-methyl-4-piperidyl)benzamide] | –
< 1 | > 10 | ≤ 0.5 µM and 0.2 to 0.5 µM | 5 to 10 | O=C(Nc1ccc(-c2c[nH]c3cc(F)ccc23)cc1)C1C2CNCC21 (centres unmarked) [Example 104, N-[4-(6-fluoro-1H-indol-3-yl)phenyl]-3-azabicyclo[3.1.0]hexane-6-carboxamide] | –
< 1 | > 10 | ≤ 0.2 µM | > 10 | CCN(CC)CC(C)NC(=O)c1ccc(-c2c[nH]c3cc(F)ccc23)cc1Cl (centres unmarked) [Example 73, 2-Chloro-N-[2-(diethylamino)-1-methyl-ethyl]-4-(6-fluoro-1H-indol-3-yl)benzamide] | –
< 1 | > 10 | ≤ 0.2 µM | > 10 | O=C(N[C@H]1CCCNC1)c1ccc(-c2c[nH]c3cc(F)ccc23)cc1 [Example 19, 4-(6-Fluoro-1H-indol-3-yl)-N-[(3S)-3-piperidyl]benzamide] | –
< 1 | > 10 | ≤ 0.5 µM and 0.2 to 0.5 µM | > 10 | CC(C)[C@H](C)NC(=O)c1ccc(-c2c[nH]c3cc(F)ccc23)cc1 [Example 49, N-[(1S)-1,2-dimethylpropyl]-4-(6-fluoro-1H-indol-3-yl)benzamide] | –
< 1 | > 10 | ≤ 0.2 µM | 5 to 10 | O=C(N[C@H]1CCCNC1)c1ccc(-c2c[nH]c3cc(F)ccc23)cc1Cl [Example 55, 2-Chloro-4-(6-fluoro-1H-indol-3-yl)-N-[(3S)-3-piperidyl]benzamide] | –
< 1 | > 10 | ≤ 0.2 µM | > 10 | CCN(CC)CC(C)NC(=O)c1ccc(-c2c[nH]c3cc(F)ccc23)cc1OC (centres unmarked) [Example 79, N-[2-(diethylamino)-1-methyl-ethyl]-4-(6-fluoro-1H-indol-3-yl)-2-methoxy-benzamide] | –
< 1 | > 10 | ≤ 0.5 µM and 0.2 to 0.5 µM | > 10 | O=C(NN1CCOCC1)c1ccc(-c2c[nH]c3cc(F)ccc23)cc1 [Example 93, 4-(6-Fluoro-1H-indol-3-yl)-N-morpholino-benzamide] | –
< 1 | > 10 | ≤ 0.5 µM and 0.2 to 0.5 µM | 5 to 10 | O=C(NCC1(O)CCC1)c1ccc(-c2c[nH]c3cc(F)ccc23)cc1 [Example 62, 4-(6-Fluoro-1H-indol-3-yl)-N-[(1-hydroxycyclobutyl)methyl]benzamide] | –
< 1 | > 10 | ≤ 0.5 µM and 0.2 to 0.5 µM | > 10 | C[C@@H](CO)NC(=O)c1c(F)cc(-c2c[nH]c3cc(F)ccc23)cc1F [Example 60, 2,6-Difluoro-4-(6-fluoro-1H-indol-3-yl)-N-[(1S)-2-hydroxy-1-methyl-ethyl]benzamide] | –
< 1 | > 10 | ≤ 0.5 µM and 0.2 to 0.5 µM | > 10 | O=C(NC1[C@H]2COC[C@@H]12)c1ccc(-c2c[nH]c3cc(F)ccc23)cc1 (stereo partly drawn) [Example 64, 4-(6-Fluoro-1H-indol-3-yl)-N-[(1R,5S)-3-oxabicyclo[3.1.0]hexan-6-yl]benzamide] | –
< 1 | > 10 | ≤ 0.2 µM | > 10 | CN1CCCC(NC(=O)c2ccc(-c3c[nH]c4cc(F)ccc34)cc2)C1 (centres unmarked) [Example 25, 4-(6-Fluoro-1H-indol-3-yl)-N-(1-methyl-3-piperidyl)benzamide] | –
< 1 | > 10 | ≤ 0.5 µM and 0.2 to 0.5 µM | > 10 | N#CC1(NC(=O)c2ccc(-c3c[nH]c4cc(F)ccc34)cc2)CC1 [Example 12, N-(1-cyanocyclopropyl)-4-(6-fluoro-1H-indol-3-yl)benzamide] | –

SMILES | IC50 (Recombinant TDO) [µM] | IC50 (CYP2D6) [µM] | IC50 ([1]; read-out: IC50 on TDO in cells) | IC50 (CYP3A4) [µM] | IC50 ([1]; IC50 on TDO in cells) [µM]
C[C@@H](CO)NC(=O)c1ccc(-c2c[nH]c3cc(F)ccc23)cc1 [Example 15, 4-(6-fluoro-1H-indol-3-yl)-N-[(1S)-2-hydroxy-1-methyl-ethyl]benzamide] | < 1 | > 10 | – | > 10 | ≤ 0.2
O=C(N[C@@H]1CN2CCC1CC2)c1ccc(-c2c[nH]c3cc(F)ccc23)cc1 [Example 20, 4-(6-Fluoro-1H-indol-3-yl)-N-[(3S)-quinuclidin-3-yl]benzamide] | < 1 | > 10 | ≤ 0.2 µM | > 10 | –
CN1C2CCC1CC(NC(=O)c1ccc(-c3c[nH]c4cc(F)ccc34)cc1)C2 (centres unmarked) [Example 47, 4-(6-Fluoro-1H-indol-3-yl)-N-(8-methyl-8-azabicyclo[3.2.1]octan-3-yl)benzamide] | < 1 | > 10 | ≤ 0.5 µM and 0.2 to 0.5 µM | > 10 | –
